This note sets out measurements from patent publication US4847247A, “Penicillin derivatives as anti-inflammatory and antidegenerative agents” (Merck & Co., Inc., priority 1986, dated 1989).

SMILES strings stand for the structures.

One experiment addresses T1, Human Polymorphonuclear Leukocyte Elastase (Homo sapiens, UniProt P08246).
T1 construct: Crude extract of human polymorphonuclear leukocytes (PMN) containing elastase activity; endogenous in cells; host or cells: human polymorphonuclear leukocytes (crude extract)
T1 sequence (P08246 30-247 limits assumed): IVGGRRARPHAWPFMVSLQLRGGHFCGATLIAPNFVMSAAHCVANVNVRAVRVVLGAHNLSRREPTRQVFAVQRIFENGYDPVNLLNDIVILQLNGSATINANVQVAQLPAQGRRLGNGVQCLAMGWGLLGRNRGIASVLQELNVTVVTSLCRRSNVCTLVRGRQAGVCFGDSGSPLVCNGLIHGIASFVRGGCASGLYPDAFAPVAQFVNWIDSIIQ
The experiment is described as follows: Inhibition of human polymorphonuclear leukocyte (granulocyte) elastase via hydrolysis of Boc-AAPAN. The experiment is classed as biochemical.
Conditions: not given
On the procedure:
Enzyme assay for the Inhibition of Human Polymorphonuclear Leukocyte Elastase Via Hydrolysis of N-t-Boc-alanyl-alanyl-prolylalanine-p-nitroanilide
0.05M TES (N-tris[hydroxymethyl]methyl-2-amino-ethanesulfonic acid) buffer, pH 7.5.
0.2 mM N-t-Boc-alanyl-alanyl-prolyl-alanine-p-nitroanilide (Boc-AAPAN).
To prepare substrate, the solid (m.w. 550) was first dissolved in 10.0 ml DMSO. Buffer at pH 7.5 was then added to a final volume of 100 ml.
Crude extract of human polymorphonuclear leukocytes (PMN) containing elastase activity.
Inhibitors (cephalosporin sulfoxide esters) to be tested dissolved in DMSO just before use.
To 1.0 ml of 0.2 mM Boc-AAPAN in a cuvette, 0.01-0.1 ml of DMSO with or without inhibitor was added. After mixing, a measurement was taken at 410 mμ to detect any spontaneous hydrolysis due to of test compound. 0.05 Milliliters of PMN extract was then added and the αOD/minute at 410 mμ was measured and recorded. Beckman model 35 spectrophotometer was used.
The elastase activity in the crude PMN extract may vary from one preparation to another. A control of each new batch is run, and the volume added in the assay procedure is adjusted according to activity.
By IC50 is commonly meant the point on the concentration scale where inhibition reaches its midpoint. The compound `Cc1ccc(S(=O)(=O)OC2C(=O)N3[C@@H](C(=O)OCc4ccccc4)C(C)(C)S(=O)(=O)[C@H]23)cc1` (stereo partly drawn) [p-CH3 C6 H4 SO2 O(TsO) / 2 / OBZ] gave an IC50 of 0.101 µM.

In turn, `CC(=O)O[C@H]1C(=O)N2[C@@H](C(=O)OCc3ccccc3)C(C)(C)S(=O)(=O)[C@H]12` [CH3 COO / 2 / OBZ, Benzyl 6α-acetoxypenicillanate-1,1-dioxide] had an IC50 of 0.524 µM.

`CC1(C)[C@H](C(=O)OCc2ccccc2)N2C(=O)[C@H](NC(=O)C(F)(F)F)[C@H]2S1(=O)=O` [6α-CF3 CONH / 2 / OBZ, Benzyl 6α-trifluoroacetamidopenicillanate-1,1-dioxide] gave an IC50 of 0.345 µM.

Still in this experiment, the particulars now being: crude human PMN extract, 0.2 mM Boc-AAPAN, pH 7.5, 410 mμ, 2 minutes after zero time; read-out: IC50 (dosage for 50% inhibition of the enzyme activity) (converted).
Consider `CCO[C@H]1C(=O)N2[C@@H](C(=O)OCc3ccccc3)C(C)(C)S(=O)(=O)[C@H]12` [6α-OC2 H5 / 2 / OBZ, Benzyl 6α-ethoxypenicillanate-1,1-dioxide], for which the IC50 was 5.44 µM. Still for that read-out and setting: as for `CN(Cc1ccccc1)C(=O)[C@@H]1N2C(=O)[C@@H](NC(=O)C(F)(F)F)[C@H]2S(=O)(=O)C1(C)C` [6β-CF3 (CO)NH / 2 / N(CH3)(BZ), 2,2-Dimethyl-6-(trifluoro-acetamido)-3-(N-methyl-N-benzylcarbamoyl)penam-1,1-dioxide], the figure is 4.47 µM; as for `CC(OC(=O)OCc1ccc([N+](=O)[O-])cc1)[C@H]1C(=O)N2[C@@H](C(=O)OCc3ccccc3)C(C)(C)S(=O)(=O)[C@H]12` (stereo partly drawn) [drawing 27 / 2 / OBZ], 0.366 µM. Same read-out and setting: to `CO[C@H]1C(=O)N2[C@@H](C(=O)OCc3ccc(C(=O)O)cc3)C(C)(C)S(=O)(=O)[C@H]12` [6α-OCH3 / 2 / OBZ(p-COOH)] belongs 5.03 µM; to `CO[C@H]1C(=O)N2[C@@H]1[S+]([O-])C(C)(COC(C)=O)[C@@H]2C(=O)OCc1ccccc1` (stereo partly drawn) [α-CH3 O / 1 / OBZ], 10.1 µM. Regarding `CO[C@H]1C(=O)N2[C@@H]1SC(C)(COC(C)=O)[C@@H]2C(=O)OCc1ccccc1` (stereo partly drawn) [α-CH3 O / 0 / OBZ], the IC50 is 13.2 µM. On the same count and under the same terms, to `CC(C)(C)OC(=O)[C@@H]1CCCN1C(=O)[C@@H]1N2C(=O)[C@H](NC(=O)C(F)(F)F)[C@H]2S(=O)(=O)C1(C)C` [6α-CF3 (CO)NH / 2 / drawing 31] belongs 40.2 µM; to `CC1(C)S[C@@H]2[C@H](COC(=O)NCc3ccccc3)C(=O)N2[C@H]1C(=O)OCc1ccccc1` [6β-CH2 O(CO)NH(BZ) / 0 / OBZ], 33 µM; to `CCC1(N(C)C(=O)C(F)(F)F)C(=O)N2C1[S+]([O-])C(C)(C)C2C(=O)OCc1ccccc1` (stereo not drawn) [β-CF3 CON(CH3) / α-C2 H5 / 1 / OBZ], 43.4 µM. Same read-out and setting: as for `CN(Cc1ccccc1)C(=O)[C@@H]1N2C(=O)[C@@H](NC(=O)C(F)(F)F)[C@H]2SC1(C)C` [6β-CF3 (CO)NH / 0 / N(CH3)(BZ), 2,2-diimethyl-6-(trifluoroacetamido)-3-(N-methyl-N-benzylcarbamoyl)penam], the figure is 1.44 µM; as for `CC(C)(C)OC(=O)c1ccc(COC(=O)[C@@H]2N3C(=O)[C@H](NC(=O)C(F)(F)F)[C@H]3S(=O)(=O)C2(C)C)cc1` [6α-CF3 (CO)NH / 2 / OBZ(p-COOtBu)], 0.187 µM; as for `CO[C@H]1C(=O)N2[C@@H](C(=O)Cc3ccccc3)C(C)(C)S(=O)(=O)[C@H]12` [6α-OCH3 / 2 / BZ], 5.93 µM. Same read-out and setting: to `CO[C@]1(NC(=O)C(F)(F)F)C(=O)N2[C@@H](C(=O)OCc3ccccc3)C(C)(C)S(=O)(=O)[C@@H]21` [α-CF3 CONH / β-CH3 O / 2 / OBZ] belongs 1.72 µM; to `CC[C@@]1(NC(=O)C(F)(F)F)C(=O)N2[C@@H](C(=O)OCc3ccccc3)C(C)(C)[S+]([O-])[C@@H]21` (stereo partly drawn) [β-CF3 CONH / α-C2 H5 / 1 / OBZ], 11.2 µM. Regarding `CN(CC(=O)O)C(=O)[C@@H]1N2C(=O)[C@H](NC(=O)C(F)(F)F)[C@H]2S(=O)(=O)C1(C)C` [6α-CF3 (CO)NH / 2 / N(CH3)(CH2 COOH)], the IC50 is 12 µM.
